We go through one compound from patent publication US10822656B2, “Methods and systems for high-throughput toxicity screening of a compound using mahalanobis values” (priority 2017, dated 2020).

This data set relates to human hepatocytes (cell lines Hu1153, Hu1154, Hu1156, Hu1164). The experiment in a line: Transcriptomics Mahalanobis distance (MD) toxicity analysis of hepatocytes exposed in-vitro. Format: cell-based. Here is the method: In one embodiment, four human donors were used to provide four independent cell lines of hepatocytes.
A number of the 192 genes were analyzed using more than one probe and as a result there were 465 different measurements or variables for each experiment. […] PPARα are nuclear receptor proteins of the hepatocyte that regulate gene expression through transcription factors and are essential in the regulation of lipid metabolism.
The MD is calculated as follows (Taguchi & R. Jungulum, 2002): MDj−Dj^2=Z′ijC^−1Zij, and Equation 1: Zij=(Xij−mi)/si Equation 2: Xij=value of the ith characteristic (gene) of the jth observation (experiment) mi=mean of the ith characteristic (gene) si=standard deviation of the ith characteristic (gene) Zij=(z1j, z2j, z3j, . . . , zkj) standardized vector of the standardized values of the Xij Zij′=transpose of the Zij standardized vector C^−1=inverse of the correlation matrix k=total number of gene measurements (e.g. 465 variables).
Data must be collected to identify the reference group from the unstressed cells. […] The MS will be determined by the normal group's mean and standard deviation vector, and the correlation matrix. The reference group will be referred to as the healthy/normal group. This is the most important aspect of the approach, as this MS will be the reference point in n-space. It is used to compare stressed hepatocyte data collected from the perturbed experiments. The measurement scale extends from the centroid of the MS and is typically one unit distance away. The centroid of the MS is the zero point for the measurement scale. The larger the Mahalanobis distance (MD) number the further it is from the centroid of the Mahalanobis space and the higher the risk from exposure. The Mahalanobis distance for each perturbed experiment will be derived from information describing the MS and will be shown below. The MD is a value that describes the relationship between the normal group and the experiment. As hepatocyte cells are stressed by varying concentrations and times of exposure, the same variables that were measured to establish the MS for the normal group will be used to determine a MD number for the experimental data. […] This MD number will be indicative of the experiments generalized distance from the centroid of the healthy/normal group. As concentration and time of exposure increases the MD number for that experiment could increase or decrease, depending on whether the stress of the genes are increasing or decreasing. In general, unstressed hepatocytes tend to look quite similar to the healthy/normal group, while stressed hepatocytes tend to look quite different from the healthy/normal group and will have a higher MD number. In addition, the changes in correlation structure among the stressed hepatocytes strongly affect the MD number. In the case where a hepatocyte's MD number reaches a predetermined high threshold value, genes may start to mutate rapidly. If the MD number becomes similar to those of the healthy/normal group, the risk associated to exposure by a particular compound could be considered a low risk from exposure.
Referring now to FIG. 14, in one embodiment, 20 different experiments were conducted to build the healthy/normal group where the cells were not exposed to chemical, e.g. GW7647. FIG. 14 is an illustration of a snapshot of the database of Normal Unexposed Observation Data where the transcriptomics data of four cell lines—1153, 1154, 1156, and 1164—are provided across five time periods—2, 6, 12, 24, and 72 hours.
This baseline information is used to determine the amount of stress the exposed cells are experiencing from the reference cell pattern of unstressed cells—the healthy/normal group. All the data collected in the 120 different experiments and 465 variables, used the same units of measure consistent with measuring differential gene expression data. […]

On to `CC(C)(Sc1ccc(CCN(CCCCC2CCCCC2)C(=O)NC2CCCCC2)cc1)C(=O)O` [GW7647], for which the “share of the 192 significant genes showing up-regulation” value is given as “Over 80%”. The “threshold level (minimum exposure time with significant response)” value (0.001 μM of concentration) is listed as “greater than 72 hours”. Also, the “threshold level (minimum exposure time with significant response)” value (0.01 μM of concentration) is recorded as “greater than 72 hours”. In addition, for the setting “1 μM of concentration”, the “threshold level (minimum exposure time with significant response)” value was found to be 2 h. For the same compound, the “threshold level (minimum exposure time with significant response)” value (10 μM of concentration) was 2 h. Further, the “threshold level (minimum concentration with significant response, p 0.05)” value (2 hours of exposure) came out at 1 µM. Also, where the note is “6 hours of exposure”, the “threshold level (minimum concentration with significant response, p 0.05)” value was determined as 0.1 µM. Also, the “threshold level (minimum concentration with significant response, p 0.05)” value (12 hours of exposure) was 0.1 µM. In addition, the “threshold level (minimum concentration with significant response, p 0.05)” value (24 hours of exposure) is 0.1 µM. For the same compound, for the setting “72 hours of exposure”, the “threshold level (minimum concentration with significant response, p 0.05)” value was 0.1 µM. Further, the “MD number relative to baseline MD number of 18.05” value (72 hours of exposure, 10 μM, mean of four cell lines) is recorded as 8.4 times. For the same compound, the “stress versus liver cells not exposed (significance of MD number)” value (concentration level 0.01 μM) is “no significant difference in stress”. The “stress versus liver cells not exposed (significance of MD number)” value (concentration level 001 μM (so in the source)) is “no significant difference in stress”. In addition, the “trend of MD number with time and concentration” value (human cell line 1153, similar for 1154, 1156, 1164) is “increases”. The “trend of average MD number with exposure and concentration” value (mean of four human cell lines, 465 variables) was “increase”. Further, the “mean MD number” value (mean of four human cell lines, 72 hours of exposure, 10 μM, 465 variables) was determined as 151.76. For the same compound, the “trend of average MD number with exposure and concentration” value (reduced sample set, only 10 genes, mean of four human cell lines) was “increase”. Further, the “genes of significance that exhibited a reaction, of 14,000 genes examined by micro-array” value (varying times and concentrations) worked out at 192 genes.
